# Experiments:
# [1] = target: T1, Imidazoleglycerol-phosphate dehydratase (Cryptococcus neoformans var. neoformans B-3501A, UniProt P0CO23); test: Inhibitory concentration against imidazole glycerol phosphate dehydratase (IGPD) from Cryptococcus neoformans
# [2] = target: T1, Imidazoleglycerol-phosphate dehydratase; test: Binding affinity imidazole glycerol phosphate dehydratase (IGPD) obtained from Cryptococcus neoformans
# [3] = target: Imidazoleglycerol-phosphate dehydratase (Cryptococcus neoformans var. neoformans B-3501A) (UniProt P0CO23); test: Kinetic constant for the inhibition of imidazole glycerol phosphate dehydratase (IGPD)
# Chain of Imidazoleglycerol-phosphate dehydratase (Cryptococcus neoformans var. neoformans B-3501A) (P0CO23 whole entry, looked up): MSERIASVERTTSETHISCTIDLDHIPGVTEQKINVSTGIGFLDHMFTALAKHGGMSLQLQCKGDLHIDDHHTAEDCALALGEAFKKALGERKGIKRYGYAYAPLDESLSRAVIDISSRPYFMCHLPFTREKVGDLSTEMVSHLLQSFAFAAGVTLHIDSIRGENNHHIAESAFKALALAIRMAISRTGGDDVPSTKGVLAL
# T1 sequence (P0CO23 whole entry, looked up): as above
Structure (SMILES),IC50 [1],Ki [2],Kis [3]
COC(=O)CCCC(=O)NC(Cn1cncn1)CP(=O)(O)O (centres undefined),2800 nM,700 nM,3.95 µM
O=C(/C=C/c1ccccc1)NC(Cn1cncn1)CP(=O)(O)O (centres undefined),21000 nM,4500 nM,25 µM
CCC(=O)NC(Cn1cncn1)CP(=O)(O)O (centres undefined),6100 nM,1200 nM,9 µM
O=C(Cc1cccs1)NC(Cn1cncn1)CP(=O)(O)O (centres undefined),3500 nM,560 nM,2.4 µM
CC1(C)CC(=O)OC1CC(=O)NC(Cn1cncn1)CP(=O)(O)O (centres undefined),2900 nM,,
CC(C)(C)CC(=O)NC(Cn1cncn1)CP(=O)(O)O (centres undefined),4800 nM,1130 nM,5 µM
O=C(NC(Cn1cncn1)CP(=O)(O)O)c1ccccc1 (centres undefined),> 50000 nM,10000 nM,100 µM
O=C(CCC(=O)c1ccccc1)NC(Cn1cncn1)CP(=O)(O)O (centres undefined),20000 nM,,
CNC(=O)C(=O)NC(Cn1cncn1)CP(=O)(O)O (centres undefined),> 50000 nM,,
CCCCCC(=O)NC(Cn1cncn1)CP(=O)(O)O (centres undefined),840 nM,340 nM,1.22 µM
O=C(CO)NC(Cn1cncn1)CP(=O)(O)O (centres undefined),910 nM,230 nM,1.23 µM
O=C(NC(Cn1cncn1)CP(=O)(O)O)c1ccco1 (centres undefined),> 50000 nM,7500 nM,33 µM
O=C(COc1ccc(Cl)cc1)NC(Cn1cncn1)CP(=O)(O)O (centres undefined),2000 nM,550 nM,2.12 µM
O=C(CCc1cccc([N+](=O)[O-])c1)NC(Cn1cncn1)CP(=O)(O)O (centres undefined),1500 nM,,
O=C(CSc1ccccc1)NC(Cn1cncn1)CP(=O)(O)O (centres undefined),920 nM,250 nM,1.26 µM
O=C(CCc1ccccc1)NC(Cn1cncn1)CP(=O)(O)O (centres undefined),960 nM,270 nM,1.14 µM

Structure (SMILES),IC50 [1],Ki [2],Kis [3]
O=C(Cc1ccccc1)NC(Cn1cncn1)CP(=O)(O)O (centres undefined),2700 nM,340 nM,3.9 µM
O=C(NC(Cn1cncn1)CP(=O)(O)O)C1CC1 (centres undefined),17000 nM,4000 nM,19 µM
CCCCc1ccc(C(=O)NC(Cn2cncn2)CP(=O)(O)O)cc1 (centres undefined),4100 nM,1300 nM,5.9 µM
O=C(CCC1CCCC1)NC(Cn1cncn1)CP(=O)(O)O (centres undefined),3100 nM,880 nM,3.7 µM
CC(Oc1ccccc1)C(=O)NC(Cn1cncn1)CP(=O)(O)O (centres undefined),1500 nM,230 nM,1.22 µM
CC1(CCC(=O)NC(Cn2cncn2)CP(=O)(O)O)SCCS1 (centres undefined),800 nM,,
C/C=C/C(=O)NC(Cn1cncn1)CP(=O)(O)O (centres undefined),4000 nM,1450 nM,5.6 µM
COCC(=O)NC(Cn1cncn1)CP(=O)(O)O (centres undefined),10000 nM,2200 nM,17 µM
NC(Cn1cncn1)CP(=O)(O)O (centres undefined),,15 nM,
O=P(O)(O)CC(O)Cn1cncn1 (centres undefined),,0.6 nM,
O=C(NC(Cn1cncn1)CP(=O)(O)O)c1ccccc1O (centres undefined),16000 nM,3500 nM,22 µM
O=C(COc1ccccc1)NC(Cn1cncn1)CP(=O)(O)O (centres undefined),380 nM,80 nM,0.27 µM
CC(C)=CC(=O)NC(Cn1cncn1)CP(=O)(O)O (centres undefined),4500 nM,1300 nM,5.5 µM
O=C(NC(Cn1cncn1)CP(=O)(O)O)c1c(F)cccc1F (centres undefined),4600 nM,1150 nM,5.8 µM
CC(=O)NC(Cn1cncn1)CP(=O)(O)O (centres undefined),3900 nM,800 nM,6.1 µM

# — ChEMBL document CHEMBL1131802, “Design and synthesis of beta-carboxamido phosphonates as potent inhibitors of imidazole glycerol phosphate dehydratase” (Bioorg Med Chem Lett, 1999)
